SMILES strings stand for the structures.

As usually defined, the IC50 is the concentration that gives 50% inhibition.

For the assay, the target named is Human cGAS amino acids 155-522 (Homo sapiens (Human), UniProt Q8N884). As to the kind of experiment: cGAS biochemical activity assay (ATP remaining, Kinase-Glo Max luminescence). The note with it: human cGAS 155-522, ATP remaining (Kinase-Glo Max); read-out: cGAS IC50. (In general: In Kinase-Glo more light means more ATP remaining.)
Sequence of Human cGAS amino acids 155-522 (Q8N884 157-522): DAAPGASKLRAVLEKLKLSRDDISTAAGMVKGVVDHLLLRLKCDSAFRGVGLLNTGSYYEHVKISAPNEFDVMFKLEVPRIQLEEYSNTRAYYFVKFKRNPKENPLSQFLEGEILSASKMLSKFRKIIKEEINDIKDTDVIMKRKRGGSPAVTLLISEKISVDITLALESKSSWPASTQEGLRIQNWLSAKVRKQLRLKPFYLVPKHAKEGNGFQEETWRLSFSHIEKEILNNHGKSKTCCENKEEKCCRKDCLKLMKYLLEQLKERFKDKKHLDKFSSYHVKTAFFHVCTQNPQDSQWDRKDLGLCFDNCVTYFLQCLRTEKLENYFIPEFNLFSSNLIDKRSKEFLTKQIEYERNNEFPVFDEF
Take `COc1cccc2oc(-c3c(C(=O)N(C)CC(=O)O)[nH]c4c(-c5ccccc5)c(C(F)(F)F)nn4c3=O)nc12` [Compound C1197, N-(6-(4-methoxybenzo[d]oxazol-2-yl)-7-oxo-3-phenyl-2-(trifluoromethyl)-4,7-dihydropyrazolo[1,5-a]pyrimidine-5-carbonyl)-N-methylglycine]: the IC50 lay within 20 to 250 µM.
To `COc1cccc2c1nc(-c1c(C)[nH]c3c(-c4ccccc4)c(C(F)(F)F)nn3c1=O)n2CCO` [Compound C1201, 6-(1-(2-hydroxyethyl)-4-methoxy-1H-benzo[d]imidazol-2-yl)-5-methyl-3-phenyl-2-(trifluoromethyl)pyrazolo[1,5-a]pyrimidin-7(4H)-one] belongs 20 to 250 µM; to `Cc1[nH]c2c(-c3ccccc3)c(C(F)(F)F)nn2c(=O)c1C(=O)Nc1ccnnc1` [Compound A1018, 5-methyl-7-oxo-3-phenyl-N-(pyridazin-4-yl)-2-(trifluoromethyl)-4,7-dihydropyrazolo[1,5-a]pyrimidine-6-carboxamide], 20 to 250 µM; to `COc1c(F)cccc1NC(=O)c1c(C)[nH]c2c(-c3ccccc3)c(C(F)(F)F)nn2c1=O` [Compound A1137, N-(3-fluoro-2-methoxyphenyl)-5-methyl-7-oxo-3-phenyl-2-(trifluoromethyl)-4,7-dihydropyrazolo[1,5-a]pyrimidine-6-carboxamide], 20 to 250 µM.
To `Cc1[nH]c2c(-c3ccccc3)c(C(F)(F)F)nn2c(=O)c1-c1nnc(CC2CCN(C)CC2)o1` [Compound D1065, 5-methyl-6-(5-((1-methylpiperidin-4-yl)methyl)-1,3,4-oxadiazol-2-yl)-3-phenyl-2-(trifluoromethyl)pyrazolo[1,5-a]pyrimidin-7(4H)-one] belongs 20 to 250 µM; to `CC(=O)Nc1ccccc1NC(=O)c1c(C)[nH]c2c(-c3ccccc3)c(C(F)(F)F)nn2c1=O` [Compound A1021, N-(2-acetamidophenyl)-5-methyl-7-oxo-3-phenyl-2-(trifluoromethyl)-4,7-dihydropyrazolo[1,5-a]pyrimidine-6-carboxamide], 20 to 250 µM.
In the case of `COc1cccc2oc(-c3c(C(=O)N4CCCCC4)[nH]c4c(-c5ccccc5)c(C(F)(F)F)nn4c3=O)nc12` [Compound C1186, 6-(4-methoxybenzo[d]oxazol-2-yl)-3-phenyl-5-(piperidine-1-carbonyl)-2-(trifluoromethyl)pyrazolo[1,5-a]pyrimidin-7(4H)-one], the IC50 fell in the range of 20 to 250 µM.
As to `Cc1[nH]c2c(-c3ccccc3)c(C(F)(F)F)nn2c(=O)c1C(=O)Nc1ccccc1NS(C)(=O)=O` [Compound A1022, 5-methyl-N-(2-(methylsulfonamido)phenyl)-7-oxo-3-phenyl-2-(trifluoromethyl)-4,7-dihydropyrazolo[1,5-a]pyrimidine-6-carboxamide], the IC50 is under 20 µM.
As for `COc1ccc(-c2nnc(Cc3c(C)[nH]c4c(-c5ccccc5)c(C(F)(F)F)nn4c3=O)o2)cc1` [Compound D1033, 6-((5-(4-methoxyphenyl)-1,3,4-oxadiazol-2-yl)methyl)-5-methyl-3-phenyl-2-(trifluoromethyl)pyrazolo[1,5-a]pyrimidin-7(4H)-one], the figure is 20 to 250 µM; as for `Cc1[nH]c2c(-c3ccccc3)c(C(F)(F)F)nn2c(=O)c1CC(=O)N1CCN(c2ccccc2)CC1` [Compound B1007, 5-methyl-6-(2-oxo-2-(4-phenylpiperazin-1-yl)ethyl)-3-phenyl-2-(trifluoromethyl)pyrazolo[1,5-a]pyrimidin-7(4H)-one], over 250 µM; as for `COc1ncccc1NC(=O)c1c(C)[nH]c2c(-c3ccccc3)c(C(F)(F)F)nn2c1=O` [Compound A1093, N-(2-methoxypyridin-3-yl)-5-methyl-7-oxo-3-phenyl-2-(trifluoromethyl)-4,7-dihydropyrazolo[1,5-a]pyrimidine-6-carboxamide], 20 to 250 µM.
To `CN(Cc1ccccc1)C(=O)c1c[nH]c2c(-c3ccccc3)c(C(F)(F)F)nn2c1=O` [Compound A1013, N-benzyl-N-methyl-7-oxo-3-phenyl-2-(trifluoromethyl)-4,7-dihydropyrazolo[1,5-a]pyrimidine-6-carboxamide] belongs over 250 µM.
As for `COCCn1c(-c2c(C)[nH]c3c(-c4ccccc4)c(C(F)(F)F)nn3c2=O)nc2c(OC)cccc21` [Compound C1200, 6-(4-methoxy-1-(2-methoxyethyl)-1H-benzo[d]imidazol-2-yl)-5-methyl-3-phenyl-2-(trifluoromethyl)pyrazolo[1,5-a]pyrimidin-7(4H)-one], the figure is 20 to 250 µM; as for `COc1cccc2oc(-c3c(C(C)=O)[nH]c4c(-c5ccccc5)c(C(F)(F)F)nn4c3=O)nc12` [Compound C1144, 5-acetyl-6-(4-methoxybenzo[d]oxazol-2-yl)-3-phenyl-2-(trifluoromethyl)pyrazolo[1,5-a]pyrimidin-7(4H)-one], 20 to 250 µM; as for `COc1cccc2oc(-c3c(C4CCC(C(=O)O)C4)[nH]c4c(-c5ccccc5)c(C(F)(F)F)nn4c3=O)nc12` (centres unmarked) [Compound C1239, 3-(6-(4-methoxybenzo[d]oxazol-2-yl)-7-oxo-3-phenyl-2-(trifluoromethyl)-4,7-dihydropyrazolo[1,5-a]pyrimidin-5-yl)cyclopentane-1-carboxylic acid], under 20 µM.
Turning to `Cc1[nH]c2c(-c3ccccc3)c(C(F)(F)F)nn2c(=O)c1-c1nnc(C2CCOC2)o1` (centres unmarked) [Compound D1013, 5-methyl-3-phenyl-6-(5-(tetrahydrofuran-3-yl)-1,3,4-oxadiazol-2-yl)-2-(trifluoromethyl)pyrazolo[1,5-a]pyrimidin-7(4H)-one], the IC50 lay in the range of 20 to 250 µM.
Take `Cc1[nH]c2c(-c3ccccc3)c(C(F)(F)F)nn2c(=O)c1C(N)=O` [Compound A1140, 5-methyl-7-oxo-3-phenyl-2-(trifluoromethyl)-4,7-dihydropyrazolo[1,5-a]pyrimidine-6-carboxamide]: the IC50 is 20 to 250 µM.
As for `COCC1CCCN1c1nnc(-c2c(C)[nH]c3c(-c4ccccc4)c(C(F)(F)F)nn3c2=O)o1` (centres unmarked) [Compound D1059, 6-(5-(2-(methoxymethyl)pyrrolidin-1-yl)-1,3,4-oxadiazol-2-yl)-5-methyl-3-phenyl-2-(trifluoromethyl)pyrazolo[1,5-a]pyrimidin-7(4H)-one], the figure is 20 to 250 µM; as for `Cc1[nH]c2c(-c3ccccc3)c(C(F)(F)F)nn2c(=O)c1-c1nnc(N2CCCC(N)C2)o1` (centres unmarked) [Compound D1084, 6-(5-(3-aminopiperidin-1-yl)-1,3,4-oxadiazol-2-yl)-5-methyl-3-phenyl-2-(trifluoromethyl)pyrazolo[1,5-a]pyrimidin-7(4H)-one], under 20 µM.
Turning to `Cc1[nH]c2c(-c3ccccc3)c(C(F)(F)F)nn2c(=O)c1C(=O)Nc1cnccn1` [Compound A1024, 5-methyl-7-oxo-3-phenyl-N-(pyrazin-2-yl)-2-(trifluoromethyl)-4,7-dihydropyrazolo[1,5-a]pyrimidine-6-carboxamide], the IC50 was under 20 µM.
To `Cc1[nH]c2c(-c3ccccc3)c(C(F)(F)F)nn2c(=O)c1-c1nnc(C2CCN(C(=O)OC(C)(C)C)CC2)o1` [Compound D1044, tert-butyl 4-(5-(5-methyl-7-oxo-3-phenyl-2-(trifluoromethyl)-4,7-dihydropyrazolo[1,5-a]pyrimidin-6-yl)-1,3,4-oxadiazol-2-yl)piperidine-1-carboxylate] belongs 20 to 250 µM.
As for `COc1cccc2oc(-c3c(C)[nH]c4c(-c5ccccc5)c(C(C)=O)nn4c3=O)nc12` [Compound C1210, 2-acetyl-6-(4-methoxybenzo[d]oxazol-2-yl)-5-methyl-3-phenylpyrazolo[1,5-a]pyrimidin-7(4H)-one], the figure is under 20 µM; as for `Cc1[nH]c2c(-c3ccccc3)c(C(F)(F)F)nn2c(=O)c1C(=O)Nc1ccccn1` [Compound A1017, 5-methyl-7-oxo-3-phenyl-N-(pyridin-2-yl)-2-(trifluoromethyl)-4,7-dihydropyrazolo[1,5-a]pyrimidine-6-carboxamide], under 20 µM; as for `COc1cccc2oc(-c3c(C)[nH]c4c(-c5ccccc5)c(=O)[nH]n4c3=O)nc12` [Compound C1049, 6-(4-methoxybenzo[d]oxazol-2-yl)-5-methyl-3-phenylpyrazolo[1,5-a]pyrimidine-2,7(1H,4H)-dione], 20 to 250 µM.
As for `Cc1[nH]c2c(-c3ccccc3)c(C(F)(F)F)nn2c(=O)c1C(=O)Nc1ccn(C2CCCCC2)n1` [Compound A1041, N-(1-cyclohexyl-1H-pyrazol-3-yl)-5-methyl-7-oxo-3-phenyl-2-(trifluoromethyl)-4,7-dihydropyrazolo[1,5-a]pyrimidine-6-carboxamide], the figure is 20 to 250 µM; as for `Cc1[nH]c2c(-c3ccccc3)c(C#N)nn2c(=O)c1-c1nnc(C2CCCCC2)o1` [Compound D1089, 6-(5-cyclohexyl-1,3,4-oxadiazol-2-yl)-5-methyl-7-oxo-3-phenyl-4,7-dihydropyrazolo[1,5-a]pyrimidine-2-carbonitrile], under 20 µM.
For `COc1ccc(F)cc1NC(=O)c1c(C)[nH]c2c(-c3ccccc3)c(C(F)(F)F)nn2c1=O` [Compound A1071, N-(5-fluoro-2-methoxyphenyl)-5-methyl-7-oxo-3-phenyl-2-(trifluoromethyl)-4,7-dihydropyrazolo[1,5-a]pyrimidine-6-carboxamide], the IC50 lay within 20 to 250 µM.
As for `COc1cccc2oc(-c3c(C(=O)N4CCC[C@@H]4CO)[nH]c4c(-c5ccccc5)c(C(F)(F)F)nn4c3=O)nc12` [Compound C1207, (R)-5-(2-(hydroxymethyl)pyrrolidine-1-carbonyl)-6-(4-methoxybenzo[d]oxazol-2-yl)-3-phenyl-2-(trifluoromethyl)pyrazolo[1,5-a]pyrimidin-7(4H)-one], the IC50 lay in the range of 20 to 250 µM.
To `Cc1[nH]c2c(-c3ccccc3)c(C(F)(F)F)nn2c(=O)c1-c1nnc(N2CCCC(O)C2)o1` (centres unmarked) [Compound D1087, 6-(5-(3-hydroxypiperidin-1-yl)-1,3,4-oxadiazol-2-yl)-5-methyl-3-phenyl-2-(trifluoromethyl)pyrazolo[1,5-a]pyrimidin-7(4H)-one] belongs 20 to 250 µM.

(Values after US10738056B2 (Aduro BioTech, Inc., priority 2017, dated 2020).)
